Assay results: patent US20100204224A1, “AZACYCLIC COMPOUNDS AS INHIBITORS OF SENSORY NEURONE SPECIFIC SODIUM CHANNELS” (priority 2005, published 2010)

Target: T1, human Nav1.8 (hNav1.8) ion channel (Homo sapiens, UniProt Q9Y5Y9)
T1 construct: expressed in transfected cells
Assay: Inhibition of human Nav1.8 stably expressed in SH-SY-5Y cells (membrane potential dye fluorescence assay)
Format: cell-based
Conditions: SH-SY-5Y hNav1.8 cells; FLIPR membrane potential dye; 10 μM pyrethroid, 250 nM TTX; test concentration range 100 μM-0.05 μM; read-out: hNav1.8 IC50

T1 sequence (Q9Y5Y9 whole entry): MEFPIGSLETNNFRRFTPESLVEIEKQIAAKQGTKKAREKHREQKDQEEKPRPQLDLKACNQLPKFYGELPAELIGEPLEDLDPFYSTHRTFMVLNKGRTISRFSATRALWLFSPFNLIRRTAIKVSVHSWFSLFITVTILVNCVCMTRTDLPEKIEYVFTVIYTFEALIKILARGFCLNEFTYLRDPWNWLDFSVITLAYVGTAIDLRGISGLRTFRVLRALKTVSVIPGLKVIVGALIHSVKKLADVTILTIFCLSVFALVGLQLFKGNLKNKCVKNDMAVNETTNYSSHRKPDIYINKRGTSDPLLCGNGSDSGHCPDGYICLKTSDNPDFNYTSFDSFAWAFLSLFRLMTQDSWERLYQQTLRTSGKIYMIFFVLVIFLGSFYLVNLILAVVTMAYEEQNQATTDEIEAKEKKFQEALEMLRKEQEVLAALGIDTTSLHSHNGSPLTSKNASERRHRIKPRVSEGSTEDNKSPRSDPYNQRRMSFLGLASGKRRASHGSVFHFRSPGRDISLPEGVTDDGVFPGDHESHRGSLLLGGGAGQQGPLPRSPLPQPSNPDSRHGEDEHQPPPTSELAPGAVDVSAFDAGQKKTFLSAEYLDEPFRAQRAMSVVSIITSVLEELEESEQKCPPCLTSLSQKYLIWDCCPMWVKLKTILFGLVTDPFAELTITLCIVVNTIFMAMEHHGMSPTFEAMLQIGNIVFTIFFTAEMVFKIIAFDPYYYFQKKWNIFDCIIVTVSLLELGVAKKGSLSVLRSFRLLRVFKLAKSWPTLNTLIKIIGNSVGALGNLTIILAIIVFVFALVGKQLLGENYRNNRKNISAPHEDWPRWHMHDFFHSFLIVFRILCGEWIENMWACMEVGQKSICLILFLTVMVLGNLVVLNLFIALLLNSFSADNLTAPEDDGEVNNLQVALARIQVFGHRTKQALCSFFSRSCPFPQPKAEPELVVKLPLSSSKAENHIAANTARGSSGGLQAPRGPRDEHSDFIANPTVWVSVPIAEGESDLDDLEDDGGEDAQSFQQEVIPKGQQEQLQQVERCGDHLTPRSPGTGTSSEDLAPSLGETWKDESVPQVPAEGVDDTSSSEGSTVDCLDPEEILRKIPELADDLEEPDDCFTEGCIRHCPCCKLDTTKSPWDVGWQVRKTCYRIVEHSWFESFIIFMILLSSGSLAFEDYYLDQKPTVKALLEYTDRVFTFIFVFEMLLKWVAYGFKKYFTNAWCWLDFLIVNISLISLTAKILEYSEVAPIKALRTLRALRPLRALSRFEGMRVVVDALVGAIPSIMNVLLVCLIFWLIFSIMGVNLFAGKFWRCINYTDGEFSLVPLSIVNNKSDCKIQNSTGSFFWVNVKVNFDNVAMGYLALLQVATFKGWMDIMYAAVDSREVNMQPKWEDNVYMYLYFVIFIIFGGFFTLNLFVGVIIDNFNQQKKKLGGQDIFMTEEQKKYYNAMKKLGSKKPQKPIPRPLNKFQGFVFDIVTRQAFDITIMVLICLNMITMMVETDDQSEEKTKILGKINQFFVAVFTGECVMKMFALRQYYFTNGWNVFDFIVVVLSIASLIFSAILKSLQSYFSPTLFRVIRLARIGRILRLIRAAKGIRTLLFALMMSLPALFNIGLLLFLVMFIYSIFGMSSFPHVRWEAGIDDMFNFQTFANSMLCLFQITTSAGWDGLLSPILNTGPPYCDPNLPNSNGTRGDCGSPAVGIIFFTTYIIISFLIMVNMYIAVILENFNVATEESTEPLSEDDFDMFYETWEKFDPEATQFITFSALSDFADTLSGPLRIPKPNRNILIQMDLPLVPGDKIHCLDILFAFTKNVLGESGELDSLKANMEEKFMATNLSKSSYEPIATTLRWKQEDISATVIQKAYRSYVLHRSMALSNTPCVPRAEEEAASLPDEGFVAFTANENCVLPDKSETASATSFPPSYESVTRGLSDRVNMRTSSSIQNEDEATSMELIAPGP

SMILES | IC50
O=C(Nc1ccc(Oc2ccc(F)cc2)cc1)N1CCC2(CCN(Cc3ccccc3)C2)C1 (stereo not drawn) [Example 103, 7-Benzyl-2,7-diaza-spiro[4.4]nonane-2-carboxylic acid [4-(4-fluoro-phenoxy)-phenyl]-amide] | 390 nM
O=C(Nc1ccc(Oc2ccc(F)cc2)cc1)N1CCC2(CCN(C3Cc4ccccc4C3)C2)C1 (stereo not drawn) [Example 104, 7-Indan-2-yl-2,7-diaza-spiro[4.4]nonane-2-carboxylic acid [4-(4-fluoro-phenoxy)-phenyl]-amide] | 430 nM
O=C(Nc1ccc(Oc2ccccc2)cc1)N1CC2CC1CN2C1Cc2ccccc2C1 (stereo not drawn) [Example 105, 5-Indan-2-yl-2,5-diaza-bicyclo[2.2.1]heptane-2-carboxylic acid (4-phenoxy-phenyl)-amide] | 200 nM
O=C(Nc1ccc(Oc2ccc(F)cc2)cc1)N1CC2CC1CN2C1Cc2ccccc2C1 (stereo not drawn) [Example 106, 5-Indan-2-yl-2,5-diaza-bicyclo[2.2.1]heptane-2-carboxylic acid [4-(4-fluoro-phenoxy)-phenyl]-amide] | 170 nM
CC(c1ccccc1Cl)N1CC2CN(C(=O)Nc3ccc(Oc4ccc(F)cc4)cc3)CC2C1 (stereo not drawn) [Example 107, 5-[1-(2-Chloro-phenyl)-ethyl]-hexahydro-pyrrolo[3,4-c]pyrrole-2-carboxylic acid [4-(4-fluoro-phenoxy)-phenyl]-amide] | 1130 nM
CC(c1ccccc1Cl)N1CC2CC1CN2C(=O)Nc1ccc(Oc2cccc(F)c2)cc1 (stereo not drawn) [Example 108, 5-[1-(2-Chloro-phenyl)-ethyl]-2,5-diaza-bicyclo[2.2.1]heptane-2-carboxylic acid [4-(3-fluoro-phenoxy)-phenyl]-amide] | 600 nM
CC(c1ccccc1Cl)N1CC2CC1CN2C(=O)Nc1ccc(Oc2ccccc2F)cc1 (stereo not drawn) [Example 109, 5-[1-(2-Chloro-phenyl)-ethyl]-2,5-diaza-bicyclo[2.2.1]heptane-2-carboxylic acid [4-(2-fluoro-phenoxy)-phenyl]-amide] | 680 nM
CC(c1ccccc1Cl)N1CC2CC1CN2C(=O)Nc1ccc(Oc2ccc(F)cc2)c(F)c1 (stereo not drawn) [Example 110, 5-[1-(2-Chloro-phenyl)-ethyl]-2,5-diaza-bicyclo[2.2.1]heptane-2-carboxylic acid [3-fluoro-4-(4-fluoro-phenoxy)-phenyl]-amide] | 210 nM
CC(c1ccccc1Cl)N1CCC2(CCN(C(=O)Nc3ccc(Oc4ccc(F)cc4)cc3)C2)C1 (stereo not drawn) [Example 111, 7-[1-(2-Chloro-phenyl)-ethyl]-2,7-diaza-spiro[4.4]nonane-2-carboxylic acid [4-(4-fluoro-phenoxy)-phenyl]-amide] | 380 nM
O=C(Nc1ccc(Oc2ccc(F)cc2)cc1)N1CC2CN(C3Cc4ccccc4C3)CC2C1 (stereo not drawn) [Example 112, 5-Indan-2-yl-hexahydro-pyrrolo[3,4-c]pyrrole-2-carboxylic acid [4-(4-fluoro-phenoxy)-phenyl]-amide] | 300 nM
O=C(Nc1ccc(Oc2ccccc2F)cc1)N1CC2CC1CN2C1Cc2ccccc2C1 (stereo not drawn) [Example 113, 5-Indan-2-yl-2,5-diaza-bicyclo[2.2.1]heptane-2-carboxylic acid [4-(2-fluoro-phenoxy)-phenyl]-amide] | 540 nM
O=C(Nc1ccc(Oc2cccc(F)c2)cc1)N1CC2CC1CN2C1Cc2ccccc2C1 (stereo not drawn) [Example 114, 5-Indan-2-yl-2,5-diaza-bicyclo[2.2.1]heptane-2-carboxylic acid [4-(3-fluoro-phenoxy)-phenyl]-amide] | 80 nM
CC(c1ccccc1Cl)N1CC2CC1CN2C(=O)N(C)c1ccc(Oc2ccc(F)cc2)cc1 (stereo not drawn) [Example 115, 5-[1-(2-Chloro-phenyl)-ethyl]-2,5-diaza-bicyclo[2.2.1]heptane-2-carboxylic acid [4-(4-fluoro-phenoxy)-phenyl]-methyl-amide] | 1980 nM
Cc1ccc(C(C)N2CC3CC2CN3C(=O)Nc2ccc(Oc3ccc(F)cc3)cc2)c(C)c1 (stereo not drawn) [Example 116, 5-[1-(2,4-Dimethyl-phenyl)-ethyl]-2,5-diaza-bicyclo[2.2.1]heptane-2-carboxylic acid [4-(4-fluoro-phenoxy)-phenyl]-amide] | 290 nM
Cc1ccc(C(C)N2CC3CC2CN3C(=O)Nc2ccc(Oc3ccc(F)cc3)cc2)c(C)c1 (stereo not drawn) [Example 117, 5-[1-(2,4-Dimethyl-phenyl)-ethyl]-2,5-diaza-bicyclo[2.2.1]heptane-2-carboxylic acid [4-(4-fluoro-phenoxy)-phenyl]-amide] | 420 nM
CC(c1ccc(Cl)cc1Cl)N1CC2CC1CN2C(=O)Nc1ccc(Oc2ccc(F)cc2)cc1 (stereo not drawn) [Example 118, 5-[1-(2,4-Dichloro-phenyl)-ethyl]-2,5-diaza-bicyclo[2.2.1]heptane-2-carboxylic acid [4-(4-fluoro-phenoxy)-phenyl]-amide] | 17600 nM

SMILES | IC50
CC(c1ccc(Cl)cc1Cl)N1CC2CC1CN2C(=O)Nc1ccc(Oc2ccc(F)cc2)cc1 (stereo not drawn) [Example 119, 5-[1-(2,4-Dichloro-phenyl)-ethyl]-2,5-diaza-bicyclo[2.2.1]heptane-2-carboxylic acid [4-(4-fluoro-phenoxy)-phenyl]-amide] | 20900 nM
CC(c1ccc(Cl)cc1Cl)N1CC2CC1CN2C(=O)Nc1ccc(C(F)(F)F)cc1 (stereo not drawn) [Example 120, 5-[1-(2,4-Dichloro-phenyl)-ethyl]-2,5-diaza-bicyclo[2.2.1]heptane-2-carboxylic acid (4-trifluoromethyl-phenyl)-amide] | 24500 nM
CC(c1ccc(Cl)cc1Cl)N1CC2CC1CN2C(=O)Nc1ccc(Oc2ccc(Cl)cc2)cc1 (stereo not drawn) [Example 121, 5-[1-(2,4-Dichloro-phenyl)-ethyl]-2,5-diaza-bicyclo[2.2.1]heptane-2-carboxylic acid [4-(4-chloro-phenoxy)-phenyl]-amide] | 22400 nM
CC(c1ccc(Cl)cc1Cl)N1CC2CC1CN2C(=O)Nc1ccc(Oc2ccc(Cl)cc2)cc1 (stereo not drawn) [Example 122, 5-[1-(2,4-Dichloro-phenyl)-ethyl]-2,5-diaza-bicyclo[2.2.1]heptane-2-carboxylic acid [4-(4-chloro-phenoxy)-phenyl]-amide] | 19200 nM
Cc1ccc(Oc2ccc(NC(=O)N3CC4CC3CN4C(C)c3ccc(Cl)cc3Cl)cc2)cc1 (stereo not drawn) [Example 123, 5-[1-(2,4-Dichloro-phenyl)-ethyl]-2,5-diaza-bicyclo[2.2.1]heptane-2-carboxylic acid (4-p-tolyloxy-phenyl)-amide] | 20800 nM
O=C(Nc1ccc(Cc2ccccc2)cc1)N1CC2CC1CN2C1Cc2ccc(F)cc2C1 (stereo not drawn) [Example 124, 5-(5-Fluoro-indan-2-yl)-2,5-diaza-bicyclo[2.2.1]heptane-2-carboxylic acid (4-benzyl-phenyl)-amide] | 640 nM
O=C(Nc1ccc(Oc2ccccc2)cc1)N1CC2CC1CN2C1Cc2ccc(F)cc2C1 (stereo not drawn) [Example 125, 5-(5-Fluoro-indan-2-yl)-2,5-diaza-bicyclo[2.2.1]heptane-2-carboxylic acid (4-phenoxy-phenyl)-amide] | 780 nM
CC(c1ccc(Cl)cc1Cl)N1CC2CC1CN2C(=O)Nc1ccc(C(F)(F)F)cc1 (stereo not drawn) [Example 126, 5-[1-(2,4-Dichloro-phenyl)-ethyl]-2,5-diaza-bicyclo[2.2.1]heptane-2-carboxylic acid (4-trifluoromethyl-phenyl)-amide] | 22900 nM
Cc1ccc(Oc2ccc(NC(=O)N3CC4CC3CN4C(C)c3ccc(Cl)cc3Cl)cc2)cc1 (stereo not drawn) [Example 127, 5-[1-(2,4-Dichloro-phenyl)-ethyl]-2,5-diaza-bicyclo[2.2.1]heptane-2-carboxylic acid (4-p-tolyloxy-phenyl)-amide] | 22100 nM
CC(c1ccccc1Cl)N1CC2CC1CN2C(=O)Nc1ccc(Oc2ccc(Cl)cc2)cc1 (stereo not drawn) [Example 128, 5-[1-(2-Chloro-phenyl)-ethyl]-2,5-diaza-bicyclo[2.2.1]heptane-2-carboxylic acid [4-(4-chloro-phenoxy)-phenyl]-amide] | 1420 nM
CC(c1ccccc1Cl)N1CC2CC1CN2C(=O)Nc1ccc(Oc2ccc(Cl)cc2)cc1 (stereo not drawn) [Example 129, 5-[1-(2-Chloro-phenyl)-ethyl]-2,5-diaza-bicyclo[2.2.1]heptane-2-carboxylic acid [4-(4-chloro-phenoxy)-phenyl]-amide] | 3800 nM
O=C(Nc1ccc(C(F)(F)F)cc1)N1CC2CC1CN2C1Cc2ccc(F)cc2C1 (stereo not drawn) [Example 130, 5-(5-Fluoro-indan-2-yl)-2,5-diaza-bicyclo[2.2.1]heptane-2-carboxylic acid (4-trifluoromethyl-phenyl)-amide] | 3610 nM
O=C(Nc1ccc(Oc2ccc(F)cc2)cc1)N1CC2CC1CN2C1Cc2ccc(F)cc2C1 (stereo not drawn) [Example 131, 5-(5-Fluoro-indan-2-yl)-2,5-diaza-bicyclo[2.2.1]heptane-2-carboxylic acid [4-(4-fluoro-phenoxy)-phenyl]-amide] | 550 nM
CC(c1ccc(F)cc1Cl)N1CC2CC1CN2C(=O)Nc1ccc(Oc2ccc(F)cc2)cc1 (stereo not drawn) [Example 132, 5-[1-(2-Chloro-4-fluoro-phenyl)-ethyl]-2,5-diaza-bicyclo[2.2.1]heptane-2-carboxylic acid [4-(4-fluoro-phenoxy)-phenyl]-amide] | 1140 nM
CC(c1ccc(F)cc1Cl)N1CC2CC1CN2C(=O)Nc1ccc(Oc2ccc(F)cc2)cc1 (stereo not drawn) [Example 133, 5-[1-(2-Chloro-4-fluoro-phenyl)-ethyl]-2,5-diaza-bicyclo[2.2.1]heptane-2-carboxylic acid [4-(4-fluoro-phenoxy)-phenyl]-amide] | 1190 nM

Same assay, conditions: hNav1.8 IC50, SH-SY-5Y hNav1.8 cells; FLIPR membrane potential dye; 10 μM pyrethroid, 250 nM TTX; test concentration range 100 μM-0.05 μM

SMILES | IC50
O=C(Cc1ccc(Oc2ccccc2)cc1)N1CC2CC1CN2C1Cc2ccc(F)cc2C1 (stereo not drawn) [Example 134, 1-[5-(5-Fluoro-indan-2-yl)-2,5-diaza-bicyclo[2.2.1]hept-2-yl]-2-(4-phenoxy-phenyl)-ethanone] | 1600 nM
CC(c1ccccc1Cl)N1CC2CC1CN2C(=O)Cc1ccc(Oc2ccc(F)cc2)cc1 (stereo not drawn) [Example 135, 1-{5-[1-(2-Chloro-phenyl)-ethyl]-2,5-diaza-bicyclo[2.2.1]hept-2-yl}-2-[4-(4-fluoro-phenoxy)-phenyl]-ethanone] | 940 nM
